Reference: patent US20240246908A1 (ORION CORPORATION, priority 2021, published 2024)

Tested on: YAP-TEAD
Experiment: TEAD inhibition, Hippo Pathway TEAD Reporter MCF-7 luciferase assay
Format: cell-based
Conditions: Homo sapiens, MCF7, 24 h, Hippo Pathway TEAD Reporter MCF-7 cells, luciferase activity after 24 h; read-out: IC50 of the test compounds on YAP-TEAD inhibition (Group)
In short: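 MCF-7 cells carrying a TEAD-responsive firefly luciferase reporter, with nuclear YAP1 driving constitutive expression, were treated the day after plating with compounds (11 concentrations, 4 replicates; 0.1% DMSO control). After 24 h, luciferase was read by ONE-Glo luminescence and IC50 determined.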

CN1C(=O)CCC1C(=O)Nc1cc(Oc2ccc(F)c(F)c2)cc2c1OCC2 (centres unmarked) [Compound 239, N-(5-(3,4-Difluorophenoxy)-2,3-dihydrobenzofuran-7-yl)-1-methyl-5-oxopyrro-lidine-2-carboxamide]
IC50: < 50 nM

O=C1CCC(C(=O)Nc2cc(Oc3cccc(C(F)(F)F)c3)cc3c2OCCO3)N1 (centres unmarked) [Compound 55, 5-Oxo-N-(7-(3-(trifluoromethyl)phenoxy)-2,3-dihydrobenzo[b][1,4]dioxin-5-yl)pyrrolidine-2-carboxamide]
IC50: 50 to 300 nM

CN1C[C@@H](C(=O)Nc2cc(Oc3ccc(C(F)(F)F)cn3)cc3c2OCC3)N(C)C1=O [Compound 364, (S)-1,3-Dimethyl-2-oxo-N-(5-((5-(trifluoromethyl)pyridin-2-yl)oxy)-2,3-dihydrobenzofuran-7-yl)imidazolidine-4-carboxamide]
IC50: 50 to 300 nM

COc1ccc(COc2cccc(F)c2)cc1NC(=O)C1CCS(=O)(=O)N1C (centres unmarked) [Compound 13, N-(5-((3-Fluorophenoxy)methyl)-2-methoxyphenyl)-2-methylisothiazolidine-3-carboxamide 1,1-dioxide]
IC50: 301 to 2000 nM

O=C1CCC(C(=O)Nc2cc(COc3cccc(F)c3)cc3c2OCC3)N1 (centres unmarked) [Compound 31, N-(5-((3-Fluorophenoxy)methyl)-2,3-dihydrobenzofuran-7-yl)-5-oxopyrrolidine-2-carboxamide]
IC50: 301 to 2000 nM

COc1ccc(OCC2CCCCC2)cc1NC(=O)C1CCC(=O)N1C (centres unmarked) [Compound 294, N-(5-(Cyclohexylmethoxy)-2-methoxyphenyl)-1-methyl-5-oxopyrrolidine-2-carboxamide]
IC50: < 50 nM

COc1ccc(Oc2ccc(C(F)(F)F)cn2)cc1NC(=O)[C@@H]1CCC(=O)N1C [Compound 403, (S)—N-(2-Methoxy-5-((5-(trifluoromethyl)pyridin-2-yl)oxy)phenyl)-1-methyl-5-oxopyrrolidine-2-carboxamide]
IC50: < 50 nM

COc1ccc(NC(=O)[C@@H]2CCC(=O)N2C)cc1O[C@H]1CC[C@@H](C(F)(F)F)CC1 [Compound 272, (R)—N-(4-Methoxy-3-(((1s,4S)-4-(trifluoromethyl)cyclohexyl)oxy)phenyl)-1-methyl-5-oxopyrrolidine-2-carboxamide]
IC50: 301 to 2000 nM

COc1ccc(Oc2cnc(F)c(C)c2)cc1NC(=O)[C@H]1CCC(=O)N1C [Compound 263, (R)—N-(5-((6-fluoro-5-methylpyridin-3-yl)oxy)-2-methoxyphenyl)-1-methyl-5-oxopyrrolidine-2-carboxamide]
IC50: 50 to 300 nM

Cc1c(Oc2cccc(C(F)(F)F)c2)cc(NC(=O)C2CCC(=O)N2C)c2c1OCCO2 (centres unmarked) [Compound 236, 1-Methyl-N-(8-methyl-7-(3-(trifluoromethyl)phenoxy)-2,3-dihydrobenzo[b]-[1,4]dioxin-5-yl)-5-oxopyrrolidine-2-carboxamide]
IC50: 301 to 2000 nM

CN1C(=O)CC[C@H]1C(=O)Nc1cc(O[C@H]2CC[C@@H](C(F)(F)F)CC2)cc2c1OCC2 [Compound 107, (S)-1-Methyl-5-oxo-N-(5-(((cis)-4-(trifluoromethyl)cyclohexyl)oxy)-2,3-dihydrobenzofuran-7-yl)pyrrolidine-2-carboxamide]
IC50: < 50 nM

COc1ccc(O[C@@H]2CCC[C@H](C(F)(F)F)C2)cc1NC(=O)[C@H]1CCC(=O)N1C [Compound 268, (R)—N-(2-Methoxy-5-(((1R,3S)-3-(trifluoromethyl)cyclohexyl)oxy)phenyl)-1-methyl-5-oxopyrrolidine-2-carboxamide]
IC50: 50 to 300 nM

COc1cc(Oc2ccc(F)c(F)c2)cc(NC(=O)C2CCC(=O)N2C)c1F (centres unmarked) [Compound 251, N-(5-(3,4-difluorophenoxy)-2-fluoro-3-methoxyphenyl)-1-methyl-5-oxopyrro-lidine-2-carboxamide]
IC50: 301 to 2000 nM

CN1C(=O)CCC1C(=O)Nc1cc(Oc2ccc(C(F)(F)F)cc2)ccc1C#N (centres unmarked) [Compound 367, N-(2-Cyano-5-(4-(trifluoromethyl)phenoxy)phenyl)-1-methyl-5-oxopyrrolidine-2-carboxamide]
IC50: 301 to 2000 nM

CN1C(=O)CC[C@@H]1C(=O)Nc1cc(Oc2ccc(F)c(F)c2)cc2c1OCCO2 [Compound 97, (R)—N-(7-(3,4-Difluorophenoxy)-2,3-dihydrobenzo[b][1,4]dioxin-5-yl)-1-methyl-5-oxopyrrolidine-2-carboxamide]
IC50: < 50 nM

COc1ccc(Oc2ccc(C(F)(F)F)cc2)cc1NC(=O)C1CN(C)C(=O)C1O (centres unmarked) [Compound 228, 4-Hydroxy-N-(2-methoxy-5-(4-(trifluoromethyl)phenoxy)phenyl)-1-methyl-5-oxopyrrolidine-3-carboxamide]
IC50: 301 to 2000 nM

COc1ccc(COc2ccc(F)c(F)c2)cc1NC(=O)C1CCC(=O)N1C (centres unmarked) [Compound 95, N-(5-((3,4-Difluorophenoxy)methyl)-2-methoxyphenyl)-1-methyl-5-oxo-pyrrolidine-2-carboxamide]
IC50: 50 to 300 nM

CN1C(=O)CC[C@H]1C(=O)Nc1cc(O[C@H]2CC[C@H](C(F)(F)F)CC2)cc2c1OCC2 [Compound 150, (S)-1-Methyl-5-oxo-N-(5-(((trans)-4-(trifluoromethyl)cyclohexyl)oxy)-2,3-dihydrobenzofuran-7-yl)pyrrolidine-2-carboxamide]
IC50: < 50 nM

COc1ccc(Oc2ccc(C(F)(F)F)cc2)cc1NC(=O)C1CCC(=O)N1C(=O)C1CCC(=O)N1 (centres unmarked) [Compound 229, N-(2-Methoxy-5-(4-(trifluoromethyl)phenoxy)phenyl)-5-oxo-1-(5-oxopyrrolidine-2-carbonyl)pyrrolidine-2-carboxamide]
IC50: < 50 nM

COc1ccc(COc2ccc(F)c(F)c2)cc1NC(=O)C1COC(=O)N1C (centres unmarked) [Compound 89, N-(5-((3,4-Difluorophenoxy)methyl)-2-methoxyphenyl)-3-methyl-2-oxo-oxazolidine-4-carboxamide]
IC50: 50 to 300 nM

COc1ccc(Oc2cccc(C(F)(F)F)c2)cc1NC(=O)C1CCC(=O)N1C(=O)C1CC1 (centres unmarked) [Compound 38, 1-(Cyclopropanecarbonyl)-N-(2-methoxy-5-(3-(trifluoromethyl)phenoxy)-phenyl)-5-oxopyrrolidine-2-carboxamide]
IC50: 301 to 2000 nM

COc1ccc(Oc2ccc(C(F)(F)F)cn2)cc1NC(=O)C1CCC(=O)N1C (centres unmarked) [Compound 276, N-(2-methoxy-5-((5-(trifluoromethyl)pyridin-2-yl)oxy)phenyl)-1-methyl-5-oxopyrrolidine-2-carboxamide]
IC50: < 50 nM

O=C1CCC2(C(=O)Nc3cc(Oc4ccc(C(F)(F)F)cc4)cc4c3OCCO4)CCCN12 (centres unmarked) [Compound 80, 3-Oxo-N-(7-(4-(trifluoromethyl)phenoxy)-2,3-dihydrobenzo[b][1,4]dioxin-5-yl)tetrahydro-1H-pyrrolizine-7a(5H)-carboxamide]
IC50: 50 to 300 nM

COc1ccc(Oc2ccc(C(F)(F)F)cc2)cc1NC(=O)[C@@H]1CC(OC)C(=O)N1C (stereo partly drawn) [Compound 143, (2S)-4-Methoxy-N-(2-methoxy-5-(4-(trifluoromethyl)phenoxy)phenyl)-1-methyl-5-oxopyrrolidine-2-carboxamide]
IC50: < 50 nM

O=C1CC(C(=O)Nc2cc(Oc3ccc(C(F)(F)F)cc3)cc3c2OCC3)CCN1 (centres unmarked) [Compound 187, 2-Oxo-N-(5-(4-(trifluoromethyl)phenoxy)-2,3-dihydrobenzofuran-7-yl)-piperidine-4-carboxamide]
IC50: < 50 nM

COc1ccc(Oc2ccc(C#N)c(Cl)c2)cc1NC(=O)[C@@H]1CCC(=O)N1C [Compound 310, (S)—N-(5-(3-Chloro-4-cyanophenoxy)-2-methoxyphenyl)-1-methyl-5-oxo-pyrrolidine-2-carboxamide]
IC50: 50 to 300 nM
